According to patent US20230248834A1, “DEGRADATION OF (EGFR) BY CONJUGATION OF EGFR INHIBITORS WITH E3 LIGASE LIGAND AND METHODS OF USE” (BEIGENE, LTD., priority 2020, published 2023):

What was measured:
[1] = biological target: T1, EGFR L858R/T790M/C797S (Homo sapiens, UniProt P00533, C797S/L858R/T790M); test: EGFR degradation HTRF assay in BaF3-LTC cells; format: cell-based; details: BaF3-LTC (L858R/T790M/C797S), maximum percentage of inhibition (degradation); read-out: BaF3-LTC Dmax (%)
T1 construct: expressed in transfected cells; host or cells: BaF3-LTC
How it was run: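 BaF3 cells expressing EGFR L858R/C797S or L858R/T790M/C797S treated 16 h at 37 °C with compounds (top 10 uM, 5-fold, 8 doses; 0.2% DMSO). Remaining EGFR quantified by HTRF in lysates after overnight antibody incubation. Degradation percentage versus DMSO controls; DC50 from four-parameter fit, Dmax as maximal degradation.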

[2] = biological target: T2, EGFR L858R/C797S (Homo sapiens, UniProt P00533, C797S/L858R); test: EGFR degradation HTRF assay in BaF3 LC cells; format: cell-based; details: BaF3 LC (L858R/C797S), maximum percentage of inhibition (degradation); read-out: BaF3 LC Dmax (%)
T2 construct: expressed in transfected cells; host or cells: BaF3 LC
Experimental: BaF3-LTC(L858R/T790M/C797S) cells and BaF3 LC(L858R/C797S) cells are treated with compounds diluted in 0.2% DMSO cell culture medium and incubate for 16 h, 37° C., 5% CO2. the final concentration of compounds in all assay is start with 10 uM, 5-fold dilution, total 8 doses were included.
After 16 h treatment, add HTRF lysis buffer to each well; seal the plate and incubate 1 hour at room temperature on a plate shaker; Once the cells are lysed, 16 μL of cell lysate are transferred to a PE 384-well HTRF detection plate; 4 μL of pre-mixed HTRF antibodies are added to each well; Cover the plate with a plate sealer, spin 1000 rpm for 1 min, Incubate overnight at room temperature; Read on BMG PheraStar with HTRF protocol (337 nm-665 nm-620 nm).
The inhibition (degradation) percentage of the compound was calculated by the following equation: Inhibition percentage of Compound=100−100×(Signal−low control)/(High control−low control), wherein signal=each test compound group
High control=Cell group with added DMSO and without compound, indicating microplate readings without EGFR degradation;
Dmax is the maximum percentage of inhibition (degradation).
The IC50 (DC50) value of a compound can be obtained by fitting the following equation
Y=Bottom+(TOP−Bottom)/(1+((IC50/X)^hillslope))
Wherein, X and Y are known values, and IC50, Hillslope, Top and Bottom are the parameters obtained by fitting with software. Y is the inhibition percentage (calculated from the equation), X is the concentration of the compound; IC50 is the concentration of the compound when the 50% inhibition is reached. The smaller the IC50 value is, the stronger the inhibitory ability of the compound is. Vice versa, the higher the IC50 value is, the weaker the inhibitory ability of the compound is; Hillslope represents the slope of the fitted curve, generally around 1*; Bottom represents the minimum value of the curve obtained by data fitting, which is generally 0%±20%; Top represents the maximum value of the curve obtained by data fitting, which is generally 100%±20%. The experimental data were fitted by calculating and analyzing with Dotmatics data analysis software.

T1 sequence (P00533 25-1210 T790M/C797S/L858R): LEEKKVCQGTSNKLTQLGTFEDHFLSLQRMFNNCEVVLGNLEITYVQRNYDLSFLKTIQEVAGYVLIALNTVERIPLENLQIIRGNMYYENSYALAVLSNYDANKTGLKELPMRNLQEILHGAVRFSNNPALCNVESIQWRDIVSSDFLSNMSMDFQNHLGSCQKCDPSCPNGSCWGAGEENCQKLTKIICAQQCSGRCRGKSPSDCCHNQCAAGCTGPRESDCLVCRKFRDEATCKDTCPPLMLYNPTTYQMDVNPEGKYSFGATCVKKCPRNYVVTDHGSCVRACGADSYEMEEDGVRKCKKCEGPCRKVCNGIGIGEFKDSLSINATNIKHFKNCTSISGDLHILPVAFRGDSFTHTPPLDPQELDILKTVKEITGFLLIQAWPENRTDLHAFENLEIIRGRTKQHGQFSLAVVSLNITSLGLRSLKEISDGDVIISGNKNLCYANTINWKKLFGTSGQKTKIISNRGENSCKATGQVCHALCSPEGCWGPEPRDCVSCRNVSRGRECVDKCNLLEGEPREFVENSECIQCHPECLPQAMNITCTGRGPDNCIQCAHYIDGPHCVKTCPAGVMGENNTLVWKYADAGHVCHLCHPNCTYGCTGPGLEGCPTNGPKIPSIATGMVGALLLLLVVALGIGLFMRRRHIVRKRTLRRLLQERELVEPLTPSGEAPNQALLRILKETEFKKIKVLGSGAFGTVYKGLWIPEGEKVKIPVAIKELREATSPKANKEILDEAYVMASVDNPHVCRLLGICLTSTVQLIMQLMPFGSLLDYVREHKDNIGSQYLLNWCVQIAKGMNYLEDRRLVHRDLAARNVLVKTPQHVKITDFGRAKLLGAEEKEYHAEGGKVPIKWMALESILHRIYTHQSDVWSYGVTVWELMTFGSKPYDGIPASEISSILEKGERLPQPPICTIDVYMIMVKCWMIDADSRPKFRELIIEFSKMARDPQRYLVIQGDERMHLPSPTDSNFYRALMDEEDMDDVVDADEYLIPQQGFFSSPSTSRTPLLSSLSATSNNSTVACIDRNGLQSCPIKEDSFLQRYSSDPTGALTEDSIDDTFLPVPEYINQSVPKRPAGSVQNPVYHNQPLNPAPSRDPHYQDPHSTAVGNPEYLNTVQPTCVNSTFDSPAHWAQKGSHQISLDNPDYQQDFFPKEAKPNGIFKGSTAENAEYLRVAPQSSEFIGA
T2 sequence (P00533 25-1210 C797S/L858R): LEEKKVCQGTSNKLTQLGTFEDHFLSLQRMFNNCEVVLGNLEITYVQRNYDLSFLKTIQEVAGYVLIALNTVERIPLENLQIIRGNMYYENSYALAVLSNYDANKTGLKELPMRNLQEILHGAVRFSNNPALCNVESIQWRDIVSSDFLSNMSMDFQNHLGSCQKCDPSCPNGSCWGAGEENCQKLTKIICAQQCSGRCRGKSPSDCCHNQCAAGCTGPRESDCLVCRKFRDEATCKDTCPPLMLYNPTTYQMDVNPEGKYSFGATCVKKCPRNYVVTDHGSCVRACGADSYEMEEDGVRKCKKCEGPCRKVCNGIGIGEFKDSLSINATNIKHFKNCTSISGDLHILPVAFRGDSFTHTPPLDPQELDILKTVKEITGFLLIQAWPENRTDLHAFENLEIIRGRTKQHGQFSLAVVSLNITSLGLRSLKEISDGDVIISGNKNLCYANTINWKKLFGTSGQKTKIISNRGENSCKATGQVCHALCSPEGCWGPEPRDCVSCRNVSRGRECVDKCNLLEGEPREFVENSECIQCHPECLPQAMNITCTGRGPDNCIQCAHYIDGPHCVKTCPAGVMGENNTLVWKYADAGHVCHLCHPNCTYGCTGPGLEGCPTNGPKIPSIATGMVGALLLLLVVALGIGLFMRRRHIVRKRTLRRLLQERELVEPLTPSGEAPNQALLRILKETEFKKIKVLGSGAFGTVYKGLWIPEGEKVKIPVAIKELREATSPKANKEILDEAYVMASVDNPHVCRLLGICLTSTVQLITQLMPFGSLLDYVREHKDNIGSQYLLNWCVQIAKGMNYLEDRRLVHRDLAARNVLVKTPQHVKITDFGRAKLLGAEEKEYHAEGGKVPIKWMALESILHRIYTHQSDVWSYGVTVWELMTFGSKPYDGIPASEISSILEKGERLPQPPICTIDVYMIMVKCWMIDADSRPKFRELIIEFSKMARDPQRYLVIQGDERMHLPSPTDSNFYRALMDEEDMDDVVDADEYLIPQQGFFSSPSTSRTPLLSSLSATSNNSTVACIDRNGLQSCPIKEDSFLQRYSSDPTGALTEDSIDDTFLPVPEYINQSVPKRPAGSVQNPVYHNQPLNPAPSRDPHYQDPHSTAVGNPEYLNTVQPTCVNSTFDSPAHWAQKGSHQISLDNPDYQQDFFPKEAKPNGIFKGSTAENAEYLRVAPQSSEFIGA

Q: For `CCOc1cc(N2CCC(N3CCN(CCc4cc(F)c([C@H]5CCC(=O)NC5=O)c(F)c4)CC3)CC2)c(CC)cc1Nc1ncc(Br)c(Nc2ccc3nc(CC)ccc3c2P(C)(C)=O)n1` [Example 483, (R)-3-(4-(2-(4-(1-(4-((5-bromo-4-((5-(dimethylphosphoryl)-2-ethylquinolin-6-yl)amino)pyrimidin-2-yl)amino)-5-ethoxy-2-ethylphenyl)piperidin-4-yl)piperazin-1-yl)ethyl)-2,6-difluorophenyl)piperidine-2,6-dione], which Dmax [1] is on record?
A: 86.9%

Q: What about the Dmax [2] of the same compound?
A: 83.2%

Q: For `CCc1ccc2c(P(C)(C)=O)c(Nc3nc(Nc4cc(CC)c(N5CCC(N6CCN(CCc7cc(F)c([C@H]8CCC(=O)NC8=O)c(F)c7)CC6)CC5)cc4OC)ncc3Br)ccc2n1` [Example 484, (R)-3-(4-(2-(4-(1-(4-((5-bromo-4-((5-(dimethylphosphoryl)-2-ethylquinolin-6-yl)amino)pyrimidin-2-yl)amino)-2-ethyl-5-methoxyphenyl)piperidin-4-yl)piperazin-1-yl)ethyl)-2,6-difluorophenyl)piperidine-2,6-dione], which Dmax [1] is on record?
A: 95.4%

Q: And the Dmax [2]?
A: 91.6%

Q: For `CCc1ccc2c(P(C)(C)=O)c(Nc3nc(Nc4cc(CC)c(N5CCC(N6CCN(CCc7cc(F)c(C8CCC(=O)NC8=O)c(F)c7)CC6)CC5)cc4OC)ncc3Br)ccc2n1` (centres unmarked) [Example 485, 3-(4-(2-(4-(1-(4-((5-bromo-4-((5-(dimethylphosphoryl)-2-ethylquinolin-6-yl)amino)pyrimidin-2-yl)amino)-2-ethyl-5-methoxyphenyl)piperidin-4-yl)piperazin-1-yl)ethyl)-2,6-difluorophenyl)piperidine-2,6-dione], which Dmax [1] is on record?
A: 88.5%

Q: What about the Dmax [2] of the same compound?
A: 88.3%

Q: Which Dmax [1] does the source give for `CCOc1cc(N2CCC(N3CCN(CCc4cc(F)c([C@H]5CCC(=O)NC5=O)c(F)c4)CC3)CC2)c(CC)cc1Nc1ncc(Br)c(Nc2cc(F)c3nc(CC)ccc3c2P(C)(C)=O)n1` [Example 486, (R)-3-(4-(2-(4-(1-(4-((5-bromo-4-((5-(dimethylphosphoryl)-2-ethyl-8-fluoroquinolin-6-yl)amino)pyrimidin-2-yl)amino)-5-ethoxy-2-ethylphenyl)piperidin-4-yl)piperazin-1-yl)ethyl)-2,6-difluorophenyl)piperidine-2,6-dione] here?
A: 87.8%

Q: What about the Dmax [2] of the same compound?
A: 87.8%

Q: With `CCc1cc(Nc2ncc(Br)c(Nc3ccc4nc(C)ccc4c3P(C)(C)=O)n2)c(OC)cc1N1CCC(N2CCN(C(=O)[C@H]3CN(c4cc(F)c([C@H]5CCC(=O)NC5=O)c(F)c4)CC3(C)C)CC2)CC1` [Example 487, (R)-3-(4-((R)-4-(4-(1-(4-((5-bromo-4-((5-(dimethylphosphoryl)-2-methylquinolin-6-yl)amino)pyrimidin-2-yl)amino)-2-ethyl-5-methoxyphenyl)piperidin-4-yl)piperazine-1-carbonyl)-3,3-dimethylpyrrolidin-1-yl)-2,6-difluorophenyl)piperidine-2,6-dione] as the compound, how does the Dmax [1] read?
A: 98%

Q: What about the Dmax [2] of the same compound?
A: 95.6%

Q: What does the source list for `CCc1cc(Nc2ncc(Br)c(Nc3ccc4nc(C)c(F)cc4c3P(C)(C)=O)n2)c(OC)cc1N1CCC(N2CCN(C(=O)[C@@H]3CCN(c4cc(F)c([C@H]5CCC(=O)NC5=O)c(F)c4)C3)CC2)CC1` [Example 488, (R)-3-(4-((R)-3-(4-(1-(4-((5-bromo-4-((5-(dimethylphosphoryl)-3-fluoro-2-methylquinolin-6-yl)amino)pyrimidin-2-yl)amino)-2-ethyl-5-methoxyphenyl)piperidin-4-yl)piperazine-1-carbonyl)pyrrolidin-1-yl)-2,6-difluorophenyl)piperidine-2,6-dione]?
A: Dmax [1]: 96.6%; Dmax [2]: 92.8%

Q: `CCc1ccc2c(P(C)(C)=O)c(Nc3nc(Nc4cc(CC)c(N5CCC(N6CCN(C(=O)[C@@H]7CCN(c8cc(F)c([C@H]9CCC(=O)NC9=O)c(F)c8)C7)CC6)CC5)cc4OC)ncc3Br)ccc2n1` [Example 489, (R)-3-(4-((R)-3-(4-(1-(4-((5-bromo-4-((5-(dimethylphosphoryl)-2-ethylquinolin-6-yl)amino)pyrimidin-2-yl)amino)-2-ethyl-5-methoxyphenyl)piperidin-4-yl)piperazine-1-carbonyl)pyrrolidin-1-yl)-2,6-difluorophenyl)piperidine-2,6-dione] was tested. Which Dmax [1] did it give?
A: 98.6%

Q: What about the Dmax [2] of the same compound?
A: 86.6%

Q: What does the source list for `CCc1ccc2c(P(C)(C)=O)c(Nc3nc(Nc4cc(CC)c(N5CCC(N6CCN(CCc7ccc8c(c7)oc(=O)n8C7CCC(=O)NC7=O)CC6)CC5)cc4OC)ncc3Br)ccc2n1` (centres unmarked) [Example 491, 3-(6-(2-(4-(1-(4-((5-bromo-4-((5-(dimethylphosphoryl)-2-ethylquinolin-6-yl)amino)pyrimidin-2-yl)amino)-2-ethyl-5-methoxyphenyl)piperidin-4-yl)piperazin-1-yl)ethyl)-2-oxobenzo[d]oxazol-3(2H)-yl)piperidine-2,6-dione]?
A: Dmax [1]: 92.7%; Dmax [2]: 94.7%

Q: How did the Dmax [1] turn out when `CCOc1cc(N2CCC(N3CCN(CCc4cccc5c4oc(=O)n5C4CCC(=O)NC4=O)CC3)CC2)c(CC)cc1Nc1ncc(Br)c(Nc2cc(F)c3nc(CC)ccc3c2P(C)(C)=O)n1` (centres unmarked) [Example 493, 3-(7-(2-(4-(1-(4-((5-bromo-4-((5-(dimethylphosphoryl)-2-ethyl-8-fluoroquinolin-6-yl)amino)pyrimidin-2-yl)amino)-5-ethoxy-2-ethylphenyl)piperidin-4-yl)piperazin-1-yl)ethyl)-2-oxobenzo[d]oxazol-3(2H)-yl)piperidine-2,6-dione] was run?
A: 95.2%

Q: What about the Dmax [2] of the same compound?
A: 87.1%

Q: How did the Dmax [1] turn out when `CCOc1cc(N2CCC(N3CCN(CCc4cccc5c4C(C)(C)C(=O)N5C4CCC(=O)NC4=O)CC3)CC2)c(CC)cc1Nc1ncc(Br)c(Nc2ccc3c(=O)n(CC)ncc3c2P(C)(C)=O)n1` (centres unmarked) [Example 501, 3-(4-(2-(4-(1-(4-((5-bromo-4-((5-(dimethylphosphoryl)-2-ethyl-1-oxo-1,2-dihydrophthalazin-6-yl)amino)pyrimidin-2-yl)amino)-5-ethoxy-2-ethylphenyl)piperidin-4-yl)piperazin-1-yl)ethyl)-3,3-dimethyl-2-oxoindolin-1-yl)piperidine-2,6-dione] was run?
A: 83.5%

Q: And the Dmax [2]?
A: 93.5%

Q: `CCOc1cc(N2CCC(N3CCN(CCc4cc(F)c([C@H]5CCC(=O)NC5=O)c(F)c4)CC3)CC2)c(CC)cc1Nc1ncc(Br)c(Nc2ccc3c(=O)n(C)ncc3c2P(C)(C)=O)n1` [Example 502, (R)-3-(4-(2-(4-(1-(4-((5-bromo-4-((5-(dimethylphosphoryl)-2-methyl-1-oxo-1,2-dihydrophthalazin-6-yl)amino)pyrimidin-2-yl)amino)-5-ethoxy-2-ethylphenyl)piperidin-4-yl)piperazin-1-yl)ethyl)-2,6-difluorophenyl)piperidine-2,6-dione] was tested. Which Dmax [1] did it give?
A: 96.7%

Q: What about the Dmax [2] of the same compound?
A: 87.6%

Q: What does the source list for `CCOc1cc(N2CCC(N3CCN(CCc4c(F)ccc5c4n(C)c(=O)n5C4CCC(=O)NC4=O)CC3)CC2)c(CC)cc1Nc1ncc(Br)c(Nc2ccc3nc(CC)ccc3c2P(C)(C)=O)n1` (centres unmarked) [Example 503, 3-(4-(2-(4-(1-(4-((5-bromo-4-((5-(dimethylphosphoryl)-2-ethylquinolin-6-yl)amino)pyrimidin-2-yl)amino)-5-ethoxy-2-ethylphenyl)piperidin-4-yl)piperazin-1-yl)ethyl)-5-fluoro-3-methyl-2-oxo-2,3-dihydro-1H-benzo[d]imidazol-1-yl)piperidine-2,6-dione]?
A: Dmax [1]: 90.2%; Dmax [2]: 88.9%

Q: What does the source list for `CCOc1cc(N2CCC(N3CCN(CCc4cccc5c4n(CC)c(=O)n5C4CCC(=O)NC4=O)CC3)CC2)c(CC)cc1Nc1ncc(Br)c(Nc2ccc3nc(CC)ccc3c2P(C)(C)=O)n1` (centres unmarked) [Example 504, 3-(4-(2-(4-(1-(4-((5-bromo-4-((5-(dimethylphosphoryl)-2-ethylquinolin-6-yl)amino)pyrimidin-2-yl)amino)-5-ethoxy-2-ethylphenyl)piperidin-4-yl)piperazin-1-yl)ethyl)-3-ethyl-2-oxo-2,3-dihydro-1H-benzo[d]imidazol-1-yl)piperidine-2,6-dione]?
A: Dmax [1]: 89%; Dmax [2]: 86%
